Measurements from patent US12534458B2, “Spiropiperidine allosteric modulators of nicotinic acetylcholine receptors” (Merck Sharp & Dohme LLC, priority 2019, dated 2026).

Each molecule was assayed against human α7 nAChR (Homo sapiens (Human), UniProt P36544) (assay: Automated patch-clamp electrophysiology functional assay (Assay A)). Details: IonFlux HT whole-cell population patch, HEK cell line stably expressing human RIC-3 and human α7, 40 μM acetylcholine.
Chain of human α7 nAChR (P36544 23-502): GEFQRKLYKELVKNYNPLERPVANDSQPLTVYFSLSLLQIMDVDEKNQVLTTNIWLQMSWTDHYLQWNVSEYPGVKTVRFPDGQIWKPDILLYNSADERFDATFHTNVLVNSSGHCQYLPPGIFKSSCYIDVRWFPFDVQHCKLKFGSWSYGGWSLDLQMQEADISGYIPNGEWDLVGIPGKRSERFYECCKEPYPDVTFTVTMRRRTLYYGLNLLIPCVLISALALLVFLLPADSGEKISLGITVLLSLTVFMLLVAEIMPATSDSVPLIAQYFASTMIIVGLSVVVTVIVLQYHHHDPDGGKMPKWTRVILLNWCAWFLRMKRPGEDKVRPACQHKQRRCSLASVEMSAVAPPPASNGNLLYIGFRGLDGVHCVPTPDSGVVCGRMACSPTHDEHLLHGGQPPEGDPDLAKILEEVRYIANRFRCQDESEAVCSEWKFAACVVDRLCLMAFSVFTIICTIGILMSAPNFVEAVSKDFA
Assay type: cell-based
Experimental: The α7 nAChR positive allosteric modulator (PAM) activity of the present compounds may be tested using assays known in the art. The α7 nAChR PAMs described herein have activities in an automated patch-clamp electrophysiology functional assay as described in the examples. The assay was performed using the IonFlux HT in a whole-cell, population patch configuration. See Golden et al. Assay Drug Dev. Technol. (2011) 9:608-619. The compounds were assessed for their ability to modulate the function of the human α7 nAChR stably expressed in a HEK cell line both in the presence, and in the absence of the natural α7 agonist acetylcholine. By performing a series of such measurements at different concentrations, the effective concentration of the α7 nAChR PAMs (EC50) was determined. See Spencer et al. Assay Drug Dev. Technol. (2012) 10:313-324.
Direct activation of α7 (agonism), and potentiation of acetylcholine-evoked α7 currents was determined as follows:
Automated patch-clamp electrophysiology was performed using the IonFlux HT (Fluxion Biosciences Inc., San Francisco, CA) in the whole-cell, population patch configuration. Test compounds were assessed for their ability to modulate the function of the α7 nicotinic acetylcholine receptor both in the presence, and in the absence of the natural α7 agonist acetylcholine. A HEK cell line stably expressing both human RIC-3 and human α7 (PrecisION hnAChR α7/RIC-3, Eurofins Pharma, St. Charles, MO) was cultured in 175 cm^2 triple-layer tissue culture flasks to no more than 90% confluency in DMEM/F-12 growth media supplemented with 10% heat-inactivated fetal bovine serum, 1% non-essential amino acids, 0.625 μg/mL Puromycin, and 400 μg/mL Geneticin. Immediately prior to assay, cells were detached by first aspirating growth media, rinsing with Dulbecco's phosphate buffered saline, and then adding 10 mL of Accutase (Innovative Cell Technologies, San Diego, CA) to the flask and then incubating at 37° C. for 5 minutes. Detached cells were then recovered by the addition of 40 mL of CHO-serum-free media supplemented with 25 mM HEPES, and rocked gently in a 50 mL conical tube for 20 minutes prior to patch-clamp assay. After recovery, cells were pelleted by centrifugation at 1,000 RPM for 1 minute in a compact bench top centrifuge; recovery media was aspirated and cells were resuspended in external recording solution (150 mM NaCl, 5 mM KCl, 2 mM CaCl2), 1 mM MgCl2, 10 mM HEPES, 12 mM dextrose) to a density of 5.0×10^6 cells/mL. The cell suspension was added to the cell inlet wells on an IonFlux HT population patch plate which had previously been rinsed and primed with deionized H2O. Test compounds were serially diluted in DMSO and then resuspended to the final test concentration in external recording solution, with, or without 40 μM acetylcholine added to the external recording solution; test compounds were then transferred to the IonFlux HT population patch plate. Internal recording solution (110 mM TrisPO4, 28 mM TrisBase, 0.1 mM CaCl2), 2 mM MgCl2, 11 mM EGTA, 4 mM MgATP) was added to the internal recording solution inlet wells on the IonFlux HT patch plate previously loaded with cells and test compounds, and the plate loaded into the IonFlux HT instrument. A protocol was executed on the IonFlux HT to trap the cells, break into the cells, and establish the whole-cell recording configuration; cells were voltage-clamped at a holding potential of −60 mV for the duration of the experiment, all experiments were conducted at room temperature, and the IonFlux HT injection pressure was 8 psi for solution applications. Upon establishing the whole-cell configuration, external recording solution was perfused into the recording chambers for 120 seconds and then 40 μM acetylcholine was applied for 1 second and immediately washed off with external recording solution for 60 seconds. […]
For `NS(=O)(=O)N1CCC2(CC1)C(c1cccc(-c3ccccc3)n1)C2(F)F` (stereo not shown) [Example 2, 1,1-Difluoro-2-(6-phenylpyridin-2-yl)-6-azaspiro[2.5]octane-6-sulfonamide], the EC50 was 1.6 µM. `NS(=O)(=O)N1CCC2(CC1)[C@@H](c1cc(-c3ccccc3)ccn1)C2(F)F` [Example B2, (2S)-1,1-Difluoro-2-(4-phenylpyridin-2-yl)-6-azaspiro[2.5]octane-6-sulfonamide] was tested, and the EC50 was 1.7 µM. `NS(=O)(=O)N1CCC2(CC1)[C@H](c1cccc(-c3ccc(C(F)(F)F)cc3)n1)C2(F)F` [Example 5, (2R)-1,1-Difluoro-2-{6-[4-(trifluoromethyl)phenyl]pyridin-2-yl}-6-azaspiro[2.5]octane-6-sulfonamide] showed an EC50 of 0.34 µM. Molecule `NS(=O)(=O)N1CCC2(CC1)C(c1cccc(-c3cccc(C(F)(F)F)c3)c1)C2(F)F` (racemic) [Example C1, 1,1-Difluoro-2-[3′-(trifluoromethyl)biphenyl-3-yl]-6-azaspiro[2.5]octane-6-sulfonamide] has an EC50 of 0.43 µM. `NS(=O)(=O)N1CCC2(CC1)[C@H](c1nc3ccccc3o1)C2(F)F` [Example A3, (2R)-2-(1,3-Benzoxazol-2-yl)-1,1-difluoro-6-azaspiro[2.5]octane-6-sulfonamide] was tested, and the EC50 was 1 µM. `NS(=O)(=O)N1CCC2(CC1)[C@H](c1cc(-c3ccccc3)ccn1)C2(F)F` [Example A1, (2R)-1,1-Difluoro-2-(4-phenylpyridin-2-yl)-6-azaspiro[2.5]octane-6-sulfonamide] gave an EC50 of 0.19 µM. With `NS(=O)(=O)N1CCC2(CC1)[C@H](c1cccc(-c3ccccc3C3CC3)n1)C2(F)F` [Example A2, (2R)-2-[6-(2-Cyclopropylphenyl)pyridin-2-yl]-1,1-difluoro-6-azaspiro[2.5]octane-6-sulfonamide] the EC50 was 0.83 µM. In the case of `Cc1ccccc1-c1cccc([C@@H]2C(F)(F)C23CCN(S(N)(=O)=O)CC3)n1` [Example 6, (2R)-1,1-Difluoro-2-[6-(2-methylphenyl)pyridin-2-yl]-6-azaspiro[2.5]octane-6-sulfonamide], the EC50 is reported as 2.2 µM. Molecule `NS(=O)(=O)N1CCC2(CC1)CC2c1cccc(-c2ccccc2)n1` (stereo not shown) [Example 3, 1-(6-Phenylpyridin-2-yl)-6-azaspiro[2.5]octane-6-sulfonamide] has an EC50 of 3 µM. `NS(=O)(=O)N1CCC2(CC1)[C@H](c1nccc(-c3ccccc3)n1)C2(F)F` [Example 4, (2R)-1,1-Difluoro-2-(4-phenylpyrimidin-2-yl)-6-azaspiro[2.5]octane-6-sulfonamide] gave an EC50 of 1.9 µM. For `NS(=O)(=O)N1CCC2(CC1)C(c1cccc(-c3conc3C3CC3)n1)C2(F)F` (single isomer, unassigned) [Example C2, 2-[6-(3-Cyclopropylisoxazol-4-yl)pyridin-2-yl]-1,1-difluoro-6-azaspiro[2.5]octane-6-sulfonamide], the EC50 was 0.85 µM. In the case of `NS(=O)(=O)N1CCC2(CC1)[C@@H](c1cccc(-c3ccc(C(F)(F)F)cc3)n1)C2(F)F` [Example B1, (2S)-1,1-Difluoro-2-{6-[4-(trifluoromethyl)phenyl]pyridin-2-yl}-6-azaspiro[2.5]octane-6-sulfonamide], the EC50 is reported as 4.4 µM. `NS(=O)(=O)N1CCC2(CC1)C[C@H]2c1nc2ccccc2s1` [Example 1, (1R)-1-(1,3-Benzothiazol-2-yl)-6-azaspiro[2.5]octane-6-sulfonamide] gave an EC50 of 0.93 µM.
